Data reported in PubChem BioAssay AID2060909 (Molecular Pharmacology Branch, DTP, NCI, 2025).
One block for each compound: values may come before it.

Test system: 362531-283-R-J2-PDC complex spheroid viability
Assay: Anticancer human tumor 362531-283-R-J2-PDC patient-derived colon adenocarcinoma cell line growth inhibition [RAS]
Conditions: for IC50: curve of first compound; for viability, T/C: stronger effect = lower value
How it was run: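 Agents were tested in combination matrices in half-log decrements from a top concentration at or near clinical Cmax (10 microM if undetermined). Targets were multi-cell spheroids of tumour lines plus HUVEC and MSC stromal cells.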

[1] = second compound 0.0316 µM, first compound 0.0316 µM
[2] = second compound 0.0316 µM, first compound 0.1 µM
[3] = second compound 0.0316 µM, first compound 0.316 µM
[4] = second compound 0.0316 µM, first compound 1 µM
[5] = second compound 0.1 µM, first compound 0.0316 µM
[6] = second compound 0.1 µM, first compound 0.1 µM
[7] = second compound 0.1 µM, first compound 0.316 µM
[8] = second compound 0.1 µM, first compound 1 µM
[9] = second compound 0.316 µM, first compound 0.0316 µM
[10] = second compound 0.316 µM, first compound 0.1 µM
[11] = second compound 0.316 µM, first compound 0.316 µM
[12] = second compound 0.316 µM, first compound 1 µM
[13] = second compound 1 µM, first compound 0.0316 µM
[14] = second compound 1 µM, first compound 0.1 µM
[15] = second compound 1 µM, first compound 0.316 µM
[16] = second compound 1 µM, first compound 1 µM
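Also: spheroids exposed to the agents for 7 days before readout.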
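For viability, T/C in this document: luminescence viability as percent of DMSO vehicle control wells.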

IC50 (second compound 0.0316 µM): 0.504 µM | IC50 (second compound 0.1 µM): 0.356 µM | IC50 (second compound 0.316 µM): 0.187 µM | IC50 (second compound 1 µM): 0.104 µM | IC50 (second compound 3.16 µM): 0.0241 µM | IC50 (second compound 10 µM): < 0.00316 µM
Compound: CCN1CCN(Cc2ccc(Nc3ncc(F)c(-c4cc(F)c5nc(C)n(C(C)C)c5c4)n3)nc2)CC1 + C#Cc1c(F)ccc2cc(O)cc(-c3ncc4c(N5CC6CCC(C5)N6)nc(OCC56CCCN5CC(F)C6)nc4c3F)c12
viability, T/C (second compound 0.0316 µM, first compound 0.00316 µM): 89.4% | viability, T/C (second compound 0.0316 µM, first compound 0.01 µM): 98.7% | viability, T/C [1]: 98.8% | viability, T/C [2]: 70.3% | viability, T/C [3]: 62.4% | viability, T/C [4]: 36.9% | viability, T/C (second compound 0.1 µM, first compound 0.00316 µM): 93.7% | viability, T/C (second compound 0.1 µM, first compound 0.01 µM): 93.6% | viability, T/C [5]: 81.4% | viability, T/C [6]: 63% | viability, T/C [7]: 57.4% | viability, T/C [8]: 28.8% | viability, T/C (second compound 0.316 µM, first compound 0.00316 µM): 93.8% | viability, T/C (second compound 0.316 µM, first compound 0.01 µM): 89.2% | viability, T/C [9]: 85.4% | viability, T/C [10]: 58.7% | viability, T/C [11]: 42% | viability, T/C [12]: 21.9% | viability, T/C (second compound 1 µM, first compound 0.00316 µM): 86.2% | viability, T/C (second compound 1 µM, first compound 0.01 µM): 88% | viability, T/C [13]: 74.1% | viability, T/C [14]: 50.5% | viability, T/C [15]: 29.8% | viability, T/C [16]: 20% | viability, T/C (second compound 3.16 µM, first compound 0.00316 µM): 77.6% | viability, T/C (second compound 3.16 µM, first compound 0.01 µM): 60.2% | viability, T/C (second compound 3.16 µM, first compound 0.0316 µM): 48.5% | viability, T/C (second compound 3.16 µM, first compound 0.1 µM): 32.1% | viability, T/C (second compound 3.16 µM, first compound 0.316 µM): 22.4% | viability, T/C (second compound 3.16 µM, first compound 1 µM): 17% | viability, T/C (second compound 10 µM, first compound 0.00316 µM): 45.2% | viability, T/C (second compound 10 µM, first compound 0.01 µM): 42.5% | viability, T/C (second compound 10 µM, first compound 0.0316 µM): 30.9% | viability, T/C (second compound 10 µM, first compound 0.1 µM): 23.6% | viability, T/C (second compound 10 µM, first compound 0.316 µM): 16.7% | viability, T/C (second compound 10 µM, first compound 1 µM): 12.2%

IC50 (second compound 0.000949 µM): 5.44 µM | IC50 (second compound 0.003 µM): > 10 µM | IC50 (second compound 0.00949 µM): 7.5 µM | IC50 (second compound 0.03 µM): 6.81 µM | IC50 (second compound 0.0949 µM): 5.87 µM | IC50 (second compound 0.3 µM): > 10 µM
Compound: NC1c2ccccc2OC12CCN(c1cnc3c(N4CCCc5ncccc54)n[nH]c3n1)CC2 (stereo unspecified) + CCn1c(-c2cccnc2C(C)OC)c2c3cc(ccc31)N1CCOC(CC(NC(=O)C(C(C)C)N(C)C(=O)C3(F)CCN(C(=O)C#CC(C)(C)N(C)C)CC3)C(=O)N3CCCC(N3)C(=O)OCC(C)(C)C2)C1
viability, T/C (second compound 0.000949 µM, first compound 0.0316 µM): 91.7% | viability, T/C (second compound 0.000949 µM, first compound 0.1 µM): 86.7% | viability, T/C (second compound 0.000949 µM, first compound 0.316 µM): 76.7% | viability, T/C (second compound 0.000949 µM, first compound 1 µM): 72.8% | viability, T/C (second compound 0.000949 µM, first compound 3.16 µM): 54.8% | viability, T/C (second compound 0.000949 µM, first compound 10 µM): 43% | viability, T/C (second compound 0.003 µM, first compound 0.0316 µM): 94.8% | viability, T/C (second compound 0.003 µM, first compound 0.1 µM): 87.5% | viability, T/C (second compound 0.003 µM, first compound 0.316 µM): 75% | viability, T/C (second compound 0.003 µM, first compound 1 µM): 66.8% | viability, T/C (second compound 0.003 µM, first compound 3.16 µM): 63.3% | viability, T/C (second compound 0.003 µM, first compound 10 µM): 52% | viability, T/C (second compound 0.00949 µM, first compound 0.0316 µM): 86.6% | viability, T/C (second compound 0.00949 µM, first compound 0.1 µM): 88.5% | viability, T/C (second compound 0.00949 µM, first compound 0.316 µM): 71.3% | viability, T/C (second compound 0.00949 µM, first compound 1 µM): 80.3% | viability, T/C (second compound 0.00949 µM, first compound 3.16 µM): 69.9% | viability, T/C (second compound 0.00949 µM, first compound 10 µM): 43.2% | viability, T/C (second compound 0.03 µM, first compound 0.0316 µM): 95.8% | viability, T/C (second compound 0.03 µM, first compound 0.1 µM): 74.2% | viability, T/C (second compound 0.03 µM, first compound 0.316 µM): 77.4% | viability, T/C (second compound 0.03 µM, first compound 1 µM): 76.4% | viability, T/C (second compound 0.03 µM, first compound 3.16 µM): 65.6% | viability, T/C (second compound 0.03 µM, first compound 10 µM): 41.3% | viability, T/C (second compound 0.0949 µM, first compound 0.0316 µM): 95.3% | viability, T/C (second compound 0.0949 µM, first compound 0.1 µM): 85.2% | viability, T/C (second compound 0.0949 µM, first compound 0.316 µM): 79% | viability, T/C (second compound 0.0949 µM, first compound 1 µM): 74.3% | viability, T/C (second compound 0.0949 µM, first compound 3.16 µM): 56.4% | viability, T/C (second compound 0.0949 µM, first compound 10 µM): 42.8% | viability, T/C (second compound 0.3 µM, first compound 0.0316 µM): 87.8% | viability, T/C (second compound 0.3 µM, first compound 0.1 µM): 75.6% | viability, T/C (second compound 0.3 µM, first compound 0.316 µM): 76.9% | viability, T/C (second compound 0.3 µM, first compound 1 µM): 67.4% | viability, T/C (second compound 0.3 µM, first compound 3.16 µM): 57.7% | viability, T/C (second compound 0.3 µM, first compound 10 µM): 53.1%

IC50 (second compound 0.00316 µM): > 10 µM | IC50 (second compound 0.01 µM): > 10 µM | IC50 (second compound 0.0316 µM): > 10 µM | IC50 (second compound 0.1 µM): > 10 µM | IC50 (second compound 0.316 µM): > 10 µM | IC50 (second compound 1 µM): > 10 µM
Compound: CC(C)NCC(C(=O)N1CCN(c2ncnc3c2C(C)CC3O)CC1)c1ccc(Cl)cc1 (stereo unspecified) + C=CC(=O)N1CCN(c2nc(OCC3CCCN3C)nc3c(F)c(-c4nc(N)cc(C)c4C(F)(F)F)c(Cl)cc23)C(C)C1
viability, T/C (second compound 0.00316 µM, first compound 0.0316 µM): 109% | viability, T/C (second compound 0.00316 µM, first compound 0.1 µM): 98.7% | viability, T/C (second compound 0.00316 µM, first compound 0.316 µM): 103% | viability, T/C (second compound 0.00316 µM, first compound 1 µM): 91.2% | viability, T/C (second compound 0.00316 µM, first compound 3.16 µM): 97% | viability, T/C (second compound 0.00316 µM, first compound 10 µM): 92.5% | viability, T/C (second compound 0.01 µM, first compound 0.0316 µM): 93.7% | viability, T/C (second compound 0.01 µM, first compound 0.1 µM): 101% | viability, T/C (second compound 0.01 µM, first compound 0.316 µM): 90.7% | viability, T/C (second compound 0.01 µM, first compound 1 µM): 94.6% | viability, T/C (second compound 0.01 µM, first compound 3.16 µM): 106% | viability, T/C (second compound 0.01 µM, first compound 10 µM): 107% | viability, T/C [1]: 90.5% | viability, T/C [2]: 104% | viability, T/C [3]: 101% | viability, T/C [4]: 102% | viability, T/C (second compound 0.0316 µM, first compound 3.16 µM): 103% | viability, T/C (second compound 0.0316 µM, first compound 10 µM): 94.9% | viability, T/C [5]: 94.2% | viability, T/C [6]: 94.5% | viability, T/C [7]: 105% | viability, T/C [8]: 96.8% | viability, T/C (second compound 0.1 µM, first compound 3.16 µM): 111% | viability, T/C (second compound 0.1 µM, first compound 10 µM): 102% | viability, T/C [9]: 95.4% | viability, T/C [10]: 105% | viability, T/C [11]: 101% | viability, T/C [12]: 96.8% | viability, T/C (second compound 0.316 µM, first compound 3.16 µM): 111% | viability, T/C (second compound 0.316 µM, first compound 10 µM): 92.5% | viability, T/C [13]: 98.6% | viability, T/C [14]: 101% | viability, T/C [15]: 95.7% | viability, T/C [16]: 102% | viability, T/C (second compound 1 µM, first compound 3.16 µM): 104% | viability, T/C (second compound 1 µM, first compound 10 µM): 86.8%
